The source of these data is patent publication US10258603B2 (priority 2014, dated 2019).

The target in one experiment is T1, CECR2 (Homo sapiens, UniProt Q9BXF3).
T1 construct: 424-538 was cloned, expressed, and purified to homogeneity; Flag; made in house
T1 sequence (Q9BXF3 424-538 limits assumed): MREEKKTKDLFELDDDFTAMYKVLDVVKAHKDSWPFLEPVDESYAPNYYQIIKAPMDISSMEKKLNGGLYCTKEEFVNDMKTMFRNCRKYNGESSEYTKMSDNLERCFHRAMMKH
The experiment is described as follows: CECR2 TR-FRET Binding Assay. The following applies: IC50 (uM). From the text:
IC50 Measurements for Inhibitors Using CECR2 TR-FRET Binding Assay
On to `CC(c1ccccc1)N1CCC(N(C)C(=O)c2cn(C)c(=O)c3[nH]ccc23)CC1` (stereo not shown) [Example 214], for which the half-maximal inhibitory concentration (IC50) was found to be 0.66 µM.
In the case of `C=CCn1cc(C(=O)N(C)C2CCN(c3cc(-n4cccn4)ncn3)CC2)c2cc[nH]c2c1=O` [Example 170, 6-allyl-N-methyl-7-oxo-N-[1-(6-pyrazol-1-ylpyrimidin-4-yl)-4-piperidyl]-1H-pyrrolo[2,3-c]pyridine-4-carboxamide], the 50% inhibitory concentration (IC50) came out at 0.042 µM.
Same read-out and setting: with `CC(C)N1CCC(N(C)C(=O)c2cn(C)c(=O)c3[nH]ccc23)CC1` [Example 41, N-(1-isopropyl-4-piperidyl)-N,6-dimethyl-7-oxo-1H-pyrrolo[2,3-c]pyridine-4-carboxamide] the figure was 0.77 µM.

Staying with this experiment, now noted: read-out: IC50.
In the case of `Cc1cccc(N2CCC(N(C)C(=O)c3cn(C)c(=O)c4[nH]ccc34)CC2)c1` [Example 173, N,6-dimethyl-N-[1-(m-tolyl)-4-piperidyl]-7-oxo-1H-pyrrolo[2,3-c]pyridine-4-carboxamide], the concentration for half-maximal inhibition (IC50) was 0.99 µM.
The same measure, in the same setting: with `CN(C(=O)c1cn(C)c(=O)c2[nH]ccc12)C1CCN(CCC2CC2)CC1` [Example 226] the figure was 0.7 µM; with `CN(CC1CCN(C2CCC2)CC1)C(=O)c1cn(C)c(=O)c2[nH]ccc12` [Example 189], 1 µM.
Take `C=CCn1cc(C(=O)N(C)C2CCN(c3cc(-c4ccco4)ncn3)CC2)c2cc(C)[nH]c2c1=O` [Example 269]: the half-maximal inhibitory concentration (IC50) was 0.033 µM.
Same read-out and setting: with `CC1CCN(CCNC(=O)c2cn(C)c(=O)c3[nH]ccc23)CC1` [Example 26, 6-methyl-N-[2-(4-methyl-1-piperidyl)ethyl]-7-oxo-1H-pyrrolo[2,3-c]pyridine-4-carboxamide] the figure was 3.2 µM; with `Cc1ccnc(N2CCC(N(C)C(=O)c3cn(C)c(=O)c4[nH]ccc34)CC2)n1` [Example 144, N,6-dimethyl-N-[1-(4-methylpyrimidin-2-yl)-4-piperidyl]-7-oxo-1H-pyrrolo[2,3-c]pyridine-4-carboxamide], 0.43 µM; with `C=CCn1cc(C(=O)N(C)C2CCN(c3cc(-c4ccccn4)ncn3)CC2)c2cc(C)[nH]c2c1=O` [Example 271, 6-allyl-N,2-dimethyl-7-oxo-N-[1-[6-(2-pyridyl)pyrimidin-4-yl]-4-piperidyl]-1H-pyrrolo[2,3-c]pyridine-4-carboxamide], 0.011 µM.
Same read-out and setting: for `Cc1cnc(N2CCC(N(C)C(=O)c3cn(C)c(=O)c4[nH]ccc34)CC2)nc1` [Example 140, N,6-dimethyl-N-[1-(5-methylpyrimidin-2-yl)-4-piperidyl]-7-oxo-1H-pyrrolo[2,3-c]pyridine-4-carboxamide] the value was 0.34 µM; for `COCCCN1CCC(CN(C)C(=O)c2cn(C)c(=O)c3[nH]ccc23)CC1` [Example 232], 1.2 µM.
Same read-out and setting: for `CN(C(=O)c1cn(C)c(=O)c2[nH]ccc12)C1CCN(c2ccncn2)CC1` [Example 139, N,6-dimethyl-7-oxo-N-(1-pyrimidin-4-yl-4-piperidyl)-1H-pyrrolo[2,3-c]pyridine-4-carboxamide] the value was 0.24 µM; for `Cn1cc(C(=O)N2CCC(CCc3ccncc3)CC2)c2cc[nH]c2c1=O` [Example 76, 6-methyl-4-[4-[2-(4-pyridyl)ethyl]piperidine-1-carbonyl]-1H-pyrrolo[2,3-c]pyridin-7-one], 0.35 µM; for `C=CCn1cc(C(=O)N(C)C2CCCc3ncccc32)c2cc(C)[nH]c2c1=O` (stereo not shown) [Example 276], 0.038 µM.
Take `Cn1cc(C(=O)NCCN2CCS(=O)(=O)CC2)c2cc[nH]c2c1=O` [Example 37, N-[2-(1,1-dioxo-1,4-thiazinan-4-yl)ethyl]-6-methyl-7-oxo-1H-pyrrolo[2,3-c]pyridine-4-carboxamide]: the IC50 was 3.1 µM.
On the same count and under the same terms, for `C=CCn1cc(C(=O)N(C)C2C3CN(c4ccncn4)CC32)c2cc[nH]c2c1=O` (stereo not shown) [Example 251] the value was 6.2 µM.
For `CN(C(=O)c1cn(C)c(=O)c2[nH]ccc12)C1CCN(c2ccc(C(F)(F)F)cc2)CC1` [Example 175, N,6-dimethyl-7-oxo-N-[1-[4-(trifluoromethyl)phenyl]-4-piperidyl]-1H-pyrrolo[2,3-c]pyridine-4-carboxamide], the IC50 was 0.76 µM.
Same read-out and setting: with `CN(C(=O)c1cn(C)c(=O)c2[nH]ccc12)C1CCN(c2ncc(F)cn2)CC1` [Example 147, N-[1-(5-fluoropyrimidin-2-yl)-4-piperidyl]-N,6-dimethyl-7-oxo-1H-pyrrolo[2,3-c]pyridine-4-carboxamide] the figure was 0.51 µM.
As for `CC(c1ccccc1)N1CCC(CN(C)C(=O)c2cn(C)c(=O)c3[nH]ccc23)CC1` (stereo not shown) [Example 197], the IC50 was 0.73 µM.
Same read-out and setting: with `C=CCn1cc(C(=O)N(C)C2CCN(c3cncc(-n4cccn4)n3)CC2)c2cc[nH]c2c1=O` [Example 169, 6-allyl-N-methyl-7-oxo-N-[1-(6-pyrazol-1-ylpyrazin-2-yl)-4-piperidyl]-1H-pyrrolo[2,3-c]pyridine-4-carboxamide] the figure was 0.023 µM; with `CN(CC1CCN(CC2CCCOC2)CC1)C(=O)c1cn(C)c(=O)c2[nH]ccc12` (stereo not shown) [Example 230], 0.79 µM; with `CC1CCN(C2CCN(C(=O)c3cn(C)c(=O)c4[nH]ccc34)CC2)CC1` [Example 62, 6-methyl-4-[4-(4-methyl-1-piperidyl)piperidine-1-carbonyl]-1H-pyrrolo[2,3-c]pyridin-7-one], 1.5 µM.
Same read-out and setting: for `C=CCn1cc(C(=O)N(C)C2CCN(c3cc(-c4cccnc4C)ncn3)CC2)c2cc(C)[nH]c2c1=O` [Example 268, 6-allyl-N,2-dimethyl-N-[1-[6-(2-methyl-3-pyridyl)pyrimidin-4-yl]-4-piperidyl]-7-oxo-1H-pyrrolo[2,3-c]pyridine-4-carboxamide] the value was 0.023 µM; for `CN1CCN(C2CCN(C(=O)c3cn(C)c(=O)c4[nH]ccc34)CC2)CC1` [Example 61, 6-methyl-4-[4-(4-methylpiperazin-1-yl)piperidine-1-carbonyl]-1H-pyrrolo[2,3-c]pyridin-7-one], 1 µM.
Regarding `Cc1cccc(NC(=O)c2cn(C)c(=O)c3[nH]ccc23)c1` [Example 80, 6-methyl-N-(m-tolyl)-7-oxo-1H-pyrrolo[2,3-c]pyridine-4-carboxamide], the IC50 was 0.51 µM.
On to `Cn1cc(C(=O)Nc2cccc(CN3CCOCC3)c2)c2cc[nH]c2c1=O` [Example 113], for which the concentration for half-maximal inhibition (IC50) was 0.31 µM.
Same read-out and setting: for `CN(C(=O)c1cn(C)c(=O)c2[nH]ccc12)C1CCN(c2nccc(C(F)(F)F)n2)CC1` [Example 142, N,6-dimethyl-7-oxo-N-[1-[4-(trifluoromethyl)pyrimidin-2-yl]-4-piperidyl]-1H-pyrrolo[2,3-c]pyridine-4-carboxamide] the value was 0.29 µM; for `C=CCn1cc(C(=O)N(C)C2CCOc3ccccc32)c2cc(C)[nH]c2c1=O` (stereo not shown) [Example 277], 0.053 µM; for `CC(C)N1CCC(N(C(=O)c2cn(C)c(=O)c3[nH]ccc23)C2CC2)CC1` [Example 243], 2 µM.
Same read-out and setting: for `CC1CCCN(C2CCN(C(=O)c3cn(C)c(=O)c4[nH]ccc34)CC2)C1` (stereo not shown) [Example 67, 6-methyl-4-[4-(3-methyl-1-piperidyl)piperidine-1-carbonyl]-1H-pyrrolo[2,3-c]pyridin-7-one] the value was 1.8 µM; for `CCN1CCC(CCN(C)C(=O)c2cn(C)c(=O)c3[nH]ccc23)CC1` [Example 182], 0.41 µM.
`C=CCn1cc(C(=O)N(C)C2CCCc3c(OC)cccc32)c2cc(C)[nH]c2c1=O` (single isomer, unassigned) [Example 288]: the concentration for half-maximal inhibition (IC50) was 0.041 µM.
On the same count and under the same terms, for `CN(C(=O)c1cn(C)c(=O)c2[nH]ccc12)C1CCN(Cc2ccc(C#N)cc2)CC1` [Example 213, N-[1-[(4-cyanophenyl)methyl]-4-piperidyl]-N,6-dimethyl-7-oxo-1H-pyrrolo[2,3-c]pyridine-4-carboxamide] the value was 0.71 µM; for `CCc1cccc(N2CCC(N(C)C(=O)c3cn(C)c(=O)c4[nH]ccc34)CC2)c1` [Example 177, N-[1-(3-ethylphenyl)-4-piperidyl]-N,6-dimethyl-7-oxo-1H-pyrrolo[2,3-c]pyridine-4-carboxamide], 0.69 µM.
On the same count and under the same terms, with `C=CCn1cc(C(=O)N(C)C2CCN(c3cc(C(C)C)ncn3)CC2)c2cc[nH]c2c1=O` [Example 167, 6-allyl-N-[1-(6-isopropylpyrimidin-4-yl)-4-piperidyl]-N-methyl-7-oxo-1H-pyrrolo[2,3-c]pyridine-4-carboxamide] the figure was 0.12 µM; with `CN(CC1CCN(c2ccncn2)CC1)C(=O)c1cn(C)c(=O)c2[nH]ccc12` [Example 158, N,6-dimethyl-7-oxo-N-[(1-pyrimidin-4-yl-4-piperidyl)methyl]-1H-pyrrolo[2,3-c]pyridine-4-carboxamide], 0.79 µM.
The same measure, in the same setting: with `CCc1ccc(N2CCC(N(C)C(=O)c3cn(C)c(=O)c4[nH]ccc34)CC2)cc1` [Example 178, N-[1-(4-ethylphenyl)-4-piperidyl]-N,6-dimethyl-7-oxo-1H-pyrrolo[2,3-c]pyridine-4-carboxamide] the figure was 0.74 µM; with `CN(CC1CCN(CC2CCCC2)CC1)C(=O)c1cn(C)c(=O)c2[nH]ccc12` [Example 187, N-[[1-(cyclopentylmethyl)-4-piperidyl]methyl]-N,6-dimethyl-7-oxo-1H-pyrrolo[2,3-c]pyridine-4-carboxamide], 0.79 µM; with `Cc1ccc(CN2CCC(N(C)C(=O)c3cn(C)c(=O)c4[nH]ccc34)CC2)cc1` [Example 218], 0.77 µM.
Take `CCN1CCC(CN(C)C(=O)c2cn(C)c(=O)c3[nH]ccc23)CC1` [Example 191]: the IC50 turned out to be 0.59 µM.
Still for that read-out and setting: with `CN(C(=O)c1cn(C)c(=O)c2[nH]ccc12)C1CCN(c2cnccn2)CC1` [Example 143, N,6-dimethyl-7-oxo-N-(1-pyrazin-2-yl-4-piperidyl)-1H-pyrrolo[2,3-c]pyridine-4-carboxamide] the figure was 0.4 µM; with `C=CCn1cc(C(=O)N2CCN(c3ccc(F)cc3)CC2C(N)=O)c2cc(C)[nH]c2c1=O` (single isomer, unassigned) [Example 273, 1-(6-allyl-2-methyl-7-oxo-6,7-dihydro-1H-pyrrolo[2,3-c]pyridine-4-carbonyl)-4-(4-fluorophenyl)piperazine-2-carboxamide], 4.9 µM.
